The target of data set [1] is hAM1 receptor (Homo sapiens, UniProt O60895+Q16602). As to the kind of experiment: cAMP assay for in vitro receptor activation, hAM1-R. Type of data set: cell-based. As to conditions: cAMP assay, hAM1 receptor; read-out: hAM1R EC50. In outline: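 A subcloned monoclonal line stably expressing hAM1 receptor is thawed and plated at 8000 cells/well. The assay buffer is DPBS with 0.05% casein and 0.5 mM IBMX, and receptor activation is followed by cAMP levels.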
(Cyclic AMP is a second messenger, typically raised through Gs and lowered through Gi signalling.)

Data set [2] concerns the target T1, hAMY3 receptor (Homo sapiens, UniProt O60896+P30988).
T1 sequence (P30988 25-474): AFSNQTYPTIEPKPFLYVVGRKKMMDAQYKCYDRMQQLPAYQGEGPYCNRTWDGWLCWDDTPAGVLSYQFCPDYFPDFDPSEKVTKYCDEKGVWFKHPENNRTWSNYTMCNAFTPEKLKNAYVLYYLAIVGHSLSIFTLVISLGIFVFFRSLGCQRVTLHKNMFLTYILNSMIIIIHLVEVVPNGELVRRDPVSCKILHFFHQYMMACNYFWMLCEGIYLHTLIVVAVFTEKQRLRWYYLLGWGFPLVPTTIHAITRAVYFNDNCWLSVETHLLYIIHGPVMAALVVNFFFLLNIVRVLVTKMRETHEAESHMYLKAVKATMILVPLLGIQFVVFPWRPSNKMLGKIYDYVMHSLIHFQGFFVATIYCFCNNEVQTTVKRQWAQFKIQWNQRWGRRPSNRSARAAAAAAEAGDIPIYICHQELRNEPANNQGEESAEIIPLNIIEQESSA
T1 sequence (O60896 24-148 partner): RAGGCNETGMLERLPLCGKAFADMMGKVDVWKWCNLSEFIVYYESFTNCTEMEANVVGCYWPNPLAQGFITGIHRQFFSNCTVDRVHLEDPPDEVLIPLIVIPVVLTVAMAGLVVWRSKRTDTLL
As to the kind of experiment: cAMP assay for in vitro receptor activation, hAMY3-R. As to conditions: cAMP assay, hAMY3 receptor; read-out: hAMY3R EC50. The data set is classed as cell-based. Put shortly:
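Stable hAMY3 cells; DPBS + 0.05% casein + 0.5 mM IBMX; graded compound doses, 30 min, RT; cAMP via HTRF Gs kit, TR-FRET read at 1 h.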

Data set [3] in a line: Physical stability of peptide analogues (Thioflavin T fibrillation). The data set is classed as physicochemical. Particulars: maximum ThT signal normalized between hAMY maximum and buffer background; 40° C., shaking, four days; pH 7 per table title. In outline: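 1 h in 50 mM NaOAc pH 4 / 50 mM NaPi pH 7; + ThT 4 μM final; 40 °C, 700 rpm linear shake 5 min pre-read; ex 450, em 480 nm q10 min × 4 d; LOESS smoothing; max signal normalised to hAMY max vs buffer blank.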

Bridge positions count the residues as written; N and C are the ends. Square brackets hold non-standard residues; d marks the D form. Peptide text beside a SMILES is read from it. Hyp = O=C(O)[C@@H]1C[C@@H](O)CN1 Where only a bound is given, the exact number is not on record here.

The record followed here is patent publication US12139520B2 (priority 2020, dated 2024).

As usually defined, the EC50 is the concentration needed to bring the measured effect to its halfway point.

hAM1 receptor, sequence (Q16602 23-461): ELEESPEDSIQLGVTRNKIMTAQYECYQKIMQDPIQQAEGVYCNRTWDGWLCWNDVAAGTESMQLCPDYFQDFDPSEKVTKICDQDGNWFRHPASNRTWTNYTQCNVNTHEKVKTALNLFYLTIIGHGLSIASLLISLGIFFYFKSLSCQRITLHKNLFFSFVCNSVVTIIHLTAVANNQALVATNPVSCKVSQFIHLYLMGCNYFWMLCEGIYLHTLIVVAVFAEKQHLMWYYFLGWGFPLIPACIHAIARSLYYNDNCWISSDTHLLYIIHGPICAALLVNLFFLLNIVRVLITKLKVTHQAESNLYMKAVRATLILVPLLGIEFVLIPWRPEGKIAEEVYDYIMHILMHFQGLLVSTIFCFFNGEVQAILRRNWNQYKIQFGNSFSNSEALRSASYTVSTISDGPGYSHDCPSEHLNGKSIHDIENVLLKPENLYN
hAM1 receptor, sequence (O60895 43-175 partner): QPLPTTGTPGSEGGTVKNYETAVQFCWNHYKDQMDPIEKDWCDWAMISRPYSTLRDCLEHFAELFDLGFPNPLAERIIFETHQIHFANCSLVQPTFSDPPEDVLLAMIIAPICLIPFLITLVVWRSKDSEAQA

`CC[C@H](C)[C@H](NC(=O)[C@H](CCC(N)=O)NC(=O)[C@H](Cc1c[nH]cn1)NC(=O)[C@H](C)NC(=O)[C@H](CC(C)C)NC(=O)[C@H](Cc1c[nH]c2ccccc12)NC(=O)[C@H](CCC(N)=O)NC(=O)[C@@H](NC(=O)[C@@H](NC(=O)[C@@H]1CSSC[C@H](NC(=O)[C@@H](N)CCCCN)C(=O)N[C@@H](CC(N)=O)C(=O)N[C@@H]([C@@H](C)O)C(=O)N[C@@H](C)C(=O)N[C@@H]([C@@H](C)O)C(=O)N1)[C@@H](C)O)C(C)C)C(=O)N[C@@H](Cc1ccc(O)cc1)C(=O)N[C@@H](CCC(N)=O)C(=O)N[C@@H](Cc1ccccc1)C(=O)N[C@H](C(=O)N[C@@H](CC(=O)O)C(=O)N[C@@H](C)C(=O)N[C@@H](CC(=O)O)C(=O)N[C@@H](CCCCN)C(=O)N[C@@H](CC(=O)O)C(=O)N[C@@H](CC(N)=O)C(=O)N[C@H](C(=O)N[C@@H](C)C(=O)N1CCC[C@H]1C(=O)N1CCC[C@H]1C(=O)N[C@H](C(=O)N[C@@H](CC(N)=O)C(=O)N[C@H](C(=O)NCC(=O)N[C@@H](CO)C(=O)N[C@@H](CC(N)=O)C(=O)NCC(=O)N1C[C@H](O)C[C@H]1C(N)=O)C(C)C)[C@@H](C)O)C(C)C)[C@@H](C)O` [compound 328] (H-KCNTATCTVQWLAHQIYQFTDADKDNVAPPTNVGSNG[Hyp]-NH2; disulfide 2-7; N-terminus assumed): the concentration for a half-maximal effect (EC50) in data set [1] was above 5000 nM; in data set [2], 0.01 nM. Also, the “Max ThT signal (%)” value in data set [3] came to 33.250%.

For the molecule `CC[C@H](C)[C@H](NC(=O)[C@H](CCC(N)=O)NC(=O)[C@H](Cc1c[nH]cn1)NC(=O)[C@H](C)NC(=O)[C@H](CC(C)C)NC(=O)[C@H](Cc1c[nH]c2ccccc12)NC(=O)[C@H](CCC(N)=O)NC(=O)[C@@H](NC(=O)[C@@H](NC(=O)[C@@H]1CSSC[C@H](NC(=O)[C@@H](N)CCCCN)C(=O)N[C@@H](CC(N)=O)C(=O)N[C@@H]([C@@H](C)O)C(=O)N[C@@H](C)C(=O)N[C@@H]([C@@H](C)O)C(=O)N1)[C@@H](C)O)C(C)C)C(=O)N[C@@H](Cc1ccc(O)cc1)C(=O)N[C@@H](CCC(N)=O)C(=O)N[C@@H](Cc1ccccc1)C(=O)N[C@@H](CC(=O)O)C(=O)N[C@@H](CCCCN)C(=O)N[C@@H](CC(=O)O)C(=O)N[C@@H](CCCCN)C(=O)N[C@@H](CC(=O)O)C(=O)N[C@@H](CC(N)=O)C(=O)N[C@H](C(=O)N[C@@H](C)C(=O)N1CCC[C@H]1C(=O)N1CCC[C@H]1C(=O)N[C@H](C(=O)N[C@@H](CC(N)=O)C(=O)N[C@H](C(=O)NCC(=O)N[C@@H](CO)C(=O)N[C@@H](CC(N)=O)C(=O)NCC(=O)N1C[C@H](O)C[C@H]1C(N)=O)C(C)C)[C@@H](C)O)C(C)C` [compound 329] (H-KCNTATCTVQWLAHQIYQFDKDKDNVAPPTNVGSNG[Hyp]-NH2; disulfide 2-7; N-terminus assumed), the concentration giving a half-maximal response (EC50) in data set [1] is above 5000 nM; in data set [2], 0.032 nM. In data set [3], the “Max ThT signal (%)” value is reported as 6.350%.

Consider `CC[C@H](C)[C@H](NC(=O)[C@H](CCC(N)=O)NC(=O)[C@H](Cc1c[nH]cn1)NC(=O)[C@H](C)NC(=O)[C@H](CC(C)C)NC(=O)[C@H](Cc1c[nH]c2ccccc12)NC(=O)[C@H](CCC(N)=O)NC(=O)[C@@H](NC(=O)[C@@H](NC(=O)[C@@H]1CSSC[C@H](NC(=O)[C@@H](N)CCCCN)C(=O)N[C@@H](CC(N)=O)C(=O)N[C@@H]([C@@H](C)O)C(=O)N[C@@H](C)C(=O)N[C@@H]([C@@H](C)O)C(=O)N1)[C@@H](C)O)C(C)C)C(=O)N[C@@H](Cc1ccc(O)cc1)C(=O)N[C@@H](CCC(N)=O)C(=O)N[C@@H](Cc1ccccc1)C(=O)N[C@H](C(=O)N[C@@H](CC(=O)O)C(=O)N[C@@H](CCCCN)C(=O)N[C@@H](CC(=O)O)C(=O)N[C@@H](CCCCN)C(=O)N[C@@H](CC(=O)O)C(=O)N[C@@H](CC(N)=O)C(=O)N[C@H](C(=O)N[C@@H](C)C(=O)N1CCC[C@H]1C(=O)N1CCC[C@H]1C(=O)N[C@H](C(=O)N[C@@H](CC(N)=O)C(=O)N[C@H](C(=O)NCC(=O)N[C@@H](CO)C(=O)N[C@@H](CC(N)=O)C(=O)NCC(=O)N1C[C@H](O)C[C@H]1C(N)=O)C(C)C)[C@@H](C)O)C(C)C)[C@@H](C)O` [compound 330] (H-KCNTATCTVQWLAHQIYQFTDKDKDNVAPPTNVGSNG[Hyp]-NH2; disulfide 2-7; N-terminus assumed), for which the EC50 in data set [1] was above 5000 nM; in data set [2], 0.008 nM. The “Max ThT signal (%)” value in data set [3] is 14.600%.

In the case of `CC[C@H](C)[C@H](NC(=O)[C@H](CCC(N)=O)NC(=O)[C@H](Cc1c[nH]cn1)NC(=O)[C@H](C)NC(=O)[C@H](CC(C)C)NC(=O)[C@H](Cc1c[nH]c2ccccc12)NC(=O)[C@H](CCC(N)=O)NC(=O)[C@@H](NC(=O)[C@@H](NC(=O)[C@@H]1CSSC[C@H](NC(=O)CN)C(=O)N[C@@H](CCCNC(=N)N)C(=O)N[C@@H]([C@@H](C)O)C(=O)NCC(=O)N[C@@H]([C@@H](C)O)C(=O)N1)[C@@H](C)O)C(C)C)C(=O)N[C@@H](Cc1ccc(O)cc1)C(=O)N[C@@H](CCC(N)=O)C(=O)N[C@@H](Cc1ccccc1)C(=O)N[C@H](C(=O)N[C@@H](CC(=O)O)C(=O)N[C@@H](CCCCN)C(=O)N[C@@H](CC(=O)O)C(=O)N[C@@H](CCCCN)C(=O)N[C@@H](CC(=O)O)C(=O)N[C@@H](CC(N)=O)C(=O)N[C@H](C(=O)N[C@@H](C)C(=O)N1CCC[C@H]1C(=O)N[C@@H](CCCNC(=N)N)C(=O)N[C@H](C(=O)N[C@@H](CC(N)=O)C(=O)N[C@H](C(=O)NCC(=O)N1CCC[C@H]1C(=O)N[C@@H](CC(N)=O)C(=O)NCC(=O)N[C@@H](Cc1ccc(O)cc1)C(N)=O)C(C)C)[C@@H](C)O)C(C)C)[C@@H](C)O` [compound 332] (H-GCRTGTCTVQWLAHQIYQFTDKDKDNVAPRTNVGPNGY-NH2; disulfide 2-7; N-terminus assumed), the EC50 in data set [1] is above 5000 nM; in data set [2] it was 0.007 nM. The “Max ThT signal (%)” value in data set [3] came to 2.100%.

For `CC[C@H](C)[C@H](NC(=O)[C@H](CCC(N)=O)NC(=O)[C@H](CCC(=O)O)NC(=O)[C@H](C)NC(=O)[C@H](CC(C)C)NC(=O)[C@H](Cc1c[nH]c2ccccc12)NC(=O)[C@H](CCC(N)=O)NC(=O)[C@@H](NC(=O)[C@@H](NC(=O)[C@@H]1CSSC[C@H](NC(=O)[C@@H](N)CCCCN)C(=O)N[C@@H](CC(N)=O)C(=O)N[C@@H](C)C(=O)N[C@@H](C)C(=O)N[C@@H]([C@@H](C)O)C(=O)N1)[C@@H](C)O)C(C)C)C(=O)N[C@@H](Cc1ccc(O)cc1)C(=O)N[C@@H](CCC(N)=O)C(=O)N[C@@H](Cc1ccccc1)C(=O)N[C@H](C(=O)N[C@@H](CC(=O)O)C(=O)N[C@@H](CCCCN)C(=O)N[C@@H](CC(=O)O)C(=O)N[C@@H](CCCCN)C(=O)N[C@@H](CC(=O)O)C(=O)N[C@@H](CC(N)=O)C(=O)N[C@H](C(=O)N[C@@H](C)C(=O)N1CCC[C@H]1C(=O)N1CCC[C@H]1C(=O)N[C@H](C(=O)N[C@@H](CC(N)=O)C(=O)N[C@H](C(=O)NCC(=O)N[C@@H](CO)C(=O)N[C@@H](CC(N)=O)C(=O)NCC(=O)N1C[C@H](O)C[C@H]1C(N)=O)C(C)C)[C@@H](C)O)C(C)C)[C@@H](C)O` [compound 333] (H-KCNAATCTVQWLAEQIYQFTDKDKDNVAPPTNVGSNG[Hyp]-NH2; disulfide 2-7; N-terminus assumed), the EC50 was found to be 107 nM in data set [1] and 0.236 nM in data set [2]. Further, the “Max ThT signal (%)” value in data set [3] turned out to be 25.700%.

With `CC[C@H](C)[C@H](NC(=O)[C@H](CCC(N)=O)NC(=O)[C@H](Cc1c[nH]cn1)NC(=O)[C@H](C)NC(=O)[C@H](CC(C)C)NC(=O)[C@H](Cc1c[nH]c2ccccc12)NC(=O)[C@H](CCC(N)=O)NC(=O)[C@@H](NC(=O)[C@@H](NC(=O)[C@@H]1CSSC[C@H](NC(=O)[C@@H](N)CCCCN)C(=O)N[C@@H](CC(N)=O)C(=O)N[C@@H]([C@@H](C)O)C(=O)N[C@@H](C)C(=O)N[C@@H]([C@@H](C)O)C(=O)N1)[C@@H](C)O)C(C)C)C(=O)N[C@@H](Cc1ccc(O)cc1)C(=O)N[C@@H](CCC(N)=O)C(=O)N[C@@H](Cc1ccccc1)C(=O)N[C@H](C(=O)N[C@@H](CC(=O)O)C(=O)N[C@@H](CCCCN)C(=O)N[C@@H](CC(=O)O)C(=O)N[C@@H](CCCCN)C(=O)N[C@@H](CC(=O)O)C(=O)N[C@@H](CC(N)=O)C(=O)N[C@H](C(=O)N[C@@H](C)C(=O)N1CCC[C@H]1C(=O)N[C@@H](CCCNC(=N)N)C(=O)N[C@H](C(=O)N[C@@H](CCC(=O)O)C(=O)N[C@H](C(=O)NCC(=O)N[C@@H](CO)C(=O)N[C@@H](CC(N)=O)C(=O)NCC(=O)N[C@@H](Cc1ccc(O)cc1)C(N)=O)C(C)C)[C@@H](C)O)C(C)C)[C@@H](C)O` [compound 334] (H-KCNTATCTVQWLAHQIYQFTDKDKDNVAPRTEVGSNGY-NH2; disulfide 2-7), the EC50 in data set [1] was above 5000 nM; in data set [2] it was 0.013 nM. Moreover, the “Max ThT signal (%)” value in data set [3] was determined as 10.150%.
